Test results taken from patent publication US11208387B2, “Macrocyclic broad spectrum antibiotics” (Genentech, Inc., priority 2019, dated 2021).
Values after ≈ are worked out from the molar mass of the structure shown. Where two headings read alike, the source gives them in different places.

Key:
Assay in all cases: Serum MIC, broth micro-dilution
Type in all cases: cell-based
[1] = tested on: Klebsiella pneumoniae ATCC 700603; conditions: Klebsiella pneumoniae
Method in brief: (§1)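 Plates held at 35 °C for 22 h after adding bacteria to a final OD600 of 0.0005. Medium was a 1:1 mix of mouse serum and cation-adjusted Mueller Hinton II broth. Ten two-fold compound dilutions began at 64, 4, 0.5 or 0.13 μg/mL, per CLSI microdilution.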

[2] = tested on: Escherichia coli strain ATCC 25922; conditions: Escherichia coli, read-out: E. coli 25922 Serum MIC
Method in brief: as §1

[3] = tested on: Pseudomonas aeruginosa PA01; conditions: Pseudomonas aeruginosa, read-out: P. aeruginosa 01 Serum MIC
Method in brief: as §1

[4] = tested on: Acinetobacter baumannii ATCC 17978; conditions: Acinetobacter baumannii
Method in brief: as §1

[5] = ATCC700603, 22 h, read-out: K pneumoniae 700603 Serum MIC
[6] = ATCC17978, 22 h, read-out: A. baumanii 17978 Serum MIC
[7] = ATCC17978, 22 h, read-out: Acinetobacter baumanii 17978 Serum MIC
[8] = ATCC700603, 50% v/v mouse serum, compounds of Table 1, Table 7, read-out: K. pneumoniae 700603 Serum MIC
[9] = ATCC25922, 50% v/v mouse serum, compounds of Table 1, Table 7
[10] = PA01, 50% v/v mouse serum, compounds of Table 1, Table 7
[11] = ATCC17978, 50% v/v mouse serum, compounds of Table 1, Table 7, read-out: A. baumanii 17978 Serum MIC
[12] = ATCC700603, 50% v/v mouse serum in Mueller Hinton II cation adjusted Broth, 35° C., 22 hours, Table 4, read-out: K pneumoniae 700603 Serum MIC
[13] = ATCC25922, 50% v/v mouse serum in Mueller Hinton II cation adjusted Broth, 35° C., 22 hours, Table 4
[14] = PA01, 50% v/v mouse serum in Mueller Hinton II cation adjusted Broth, 35° C., 22 hours, Table 4
[15] = ATCC17978, 50% v/v mouse serum in Mueller Hinton II cation adjusted Broth, 35° C., 22 hours, Table 4, read-out: A. baumanii 17978 Serum MIC
[16] = ATCC17978, 50% v/v mouse serum in Mueller Hinton II cation adjusted Broth, 35° C., 22 hours, Table 5, read-out: Acinetobacter baumanii 17978 Serum MIC

| SMILES | MIC [1, 8] | MIC [2, 9] | MIC [3, 10] | MIC [4, 11] | MIC [1, 12] | MIC [2, 13] | MIC [3, 14] | MIC [4, 15] | MIC [4, 16] | also measured |
| --- | --- | --- | --- | --- | --- | --- | --- | --- | --- | --- |
| C[C@@H]1NC(=O)[C@@H](N(C)C(=O)[C@H](CCN)NC(=O)c2cnn(-c3ccc(C(C)(C)C)cc3)c(=O)c2)c2cc(OC[C@H](O)CN)c(O)c(c2)-c2cc(ccc2OC[C@H](O)CN)C[C@@H](C(=O)O)NC1=O [Example 17, (8S,11S,14S)-18-hydroxy-11-methyl-14-[methyl-[(2S)-4-amino-2-[[1-(4-tert-butylphenyl)-6-oxo-pyridazine-4-carbonyl]amino]-butanoyl]amino]-10,13-dioxo-3,17-bis[(2R)-3-amino-2-hydroxy-propoxy]-9,12-diazatricyclo-[13.3.1.12,6]icosa-1(18),2(20),3,5,15(19), 16-hexaene-8-carboxylic acid] | – | – | – | – | – | – | – | – | – | MIC [1, 5]: 1 µM (≈ 0.93 µg/mL); MIC ([2]; ATCC25922, 22 h): 1 µM (≈ 0.93 µg/mL); MIC ([3]; PA01, 22 h): 64 µM (≈ 59.5 µg/mL); MIC [4, 6]: 16 µM (≈ 14.9 µg/mL); MIC [4, 7]: 16 µM (≈ 14.9 µg/mL) |
| Cc1nc(-c2ccc(C(C)(C)C)cc2)nc(C)c1C(=O)N[C@@H](CCN)C(=O)N(C)[C@@H]1C(=O)N[C@@H](C)C(=O)N[C@H](C(=O)NCC#N)Cc2ccc(O)c(c2)-c2cc1cc(OCCN)c2OCCN [Example 633] | 0.063 µM (≈ 0.058 µg/mL) | 0.063 µM (≈ 0.058 µg/mL) | 4 µM (≈ 3.68 µg/mL) | 5 µM (≈ 4.6 µg/mL) | – | – | – | – | – | – |
| CCC1(Oc2ccc(-c3nc(C)c(C(=O)N[C@@H](CCN)C(=O)N(C)[C@@H]4C(=O)N[C@@H](C)C(=O)N[C@H](C(=O)O)Cc5ccc(OCCN)c(c5)-c5cc4ccc5OCCN)c(C)n3)cc2)CC1 (racemic) [Example 639] | 1 µM (≈ 0.894 µg/mL) | 0.5 µM (≈ 0.447 µg/mL) | 64 µM (≈ 57.2 µg/mL) | 64 µM (≈ 57.2 µg/mL) | – | – | – | – | – | – |
| Cc1nc(-c2ccc(CC3CC3)cc2)nc(N)c1C(=O)N[C@@H](CNS(N)(=O)=O)C(=O)N(C)[C@@H]1C(=O)N[C@@H](C)C(=O)N[C@H](C(=O)O)Cc2ccc(OC[C@H](O)CN)c(c2)-c2cc1cc(OC[C@H](O)CN)c2O [Example 34, (8S,11S,14S)-14-[[(2S)-2-[[4-amino-2-[4-(cyclopropyl-methyl)phenyl]-6-methyl-pyrimidine-5-carbonyl]amino]-3-(sulfamoylamino)-propanoyl]-methyl-amino]-3,17-bis[(2R)-3-amino-2-hydroxy-propoxy]-18-hydroxy-11-methyl-10,13-dioxo-9,12-diazatricyclo-[13.3.1.12,6]icosa-1(18),2(20),3,5,15(19), 16-hexaene-8-carboxylic acid] | – | – | – | – | 0.75 µM (≈ 0.755 µg/mL) | 0.5 µM (≈ 0.503 µg/mL) | 12 µM (≈ 12.1 µg/mL) | 16 µM (≈ 16.1 µg/mL) | 16 µM (≈ 16.1 µg/mL) | – |
| Cc1nc(-c2ccc(C3(C)CC3)cc2)ncc1C(=O)N[C@@H](CNS(N)(=O)=O)C(=O)N(C)[C@@H]1C(=O)N[C@@H](C)C(=O)N[C@H](C(=O)O)Cc2ccc(OC[C@H](O)CN)c(c2)-c2cc1cc(OC[C@H](O)CN)c2O [Example 5, (8S,11S,14S)-18-hydroxy-11-methyl-14-[methyl-[(2S)-2-[[4-methyl-2-[4-(1-methylcyclopropyl)-phenyl]pyrimidine-5-carbonyl]amino]-3-(sulfamoylamino)-propanoyl]amino]-10,13-dioxo-3,17-bis[(2R)-3-amino-2-hydroxy-propoxy]-9,12-diazatricyclo-[13.3.1.12,6]icosa-1(18),2(20),3,5,15(19), 16-hexaene-8-carboxylic acid] | – | – | – | – | 0.88 µM (≈ 0.872 µg/mL) | 0.63 µM (≈ 0.624 µg/mL) | 20 µM (≈ 19.8 µg/mL) | 12 µM (≈ 11.9 µg/mL) | 12 µM (≈ 11.9 µg/mL) | – |
| C[C@@H]1NC(=O)[C@@H](N(C)C(=O)[C@H](CNS(N)(=O)=O)NC(=O)c2cnn(-c3ccc(OC4CCCCC4)cc3)c(=O)c2)c2cc(OC[C@H](O)CN)c(O)c(c2)-c2cc(ccc2OC[C@H](O)CN)C[C@@H](C(=O)O)NC1=O [Example 9, (8S,11S,14S)-18-hydroxy-11-methyl-14-[methyl-[(2S)-2-[[1-[4-(cyclohexoxy)-phenyl]-6-oxo-pyridazine-4-carbonyl]amino]-3-(sulfamoylamino)-propanoyl]amino]-10,13-dioxo-3,17-bis[(2R)-3-amino-2-hydroxy-propoxy]-9,12-diazatricyclo-[13.3.1.12,6]icosa-1(18),2(20),3,5,15(19), 16-hexaene-8-carboxylic acid] | – | – | – | – | 1.5 µM (≈ 1.56 µg/mL) | 6 µM (≈ 6.22 µg/mL) | 32 µM (≈ 33.2 µg/mL) | 32 µM (≈ 33.2 µg/mL) | 32 µM (≈ 33.2 µg/mL) | – |
| Cc1nc(-c2ccc(OC(C)C)cc2)nc(C)c1C(=O)N[C@@H](CCN)C(=O)N(C)[C@@H]1C(=O)N[C@@H](C)C(=O)N[C@H](C(=O)O)Cc2ccc(O)c(c2)-c2cc1ccc2OCCN (racemic) [Example 643] | 4.6 µM (≈ 3.79 µg/mL) | 2.3 µM (≈ 1.9 µg/mL) | 73 µM (≈ 60.2 µg/mL) | 73 µM (≈ 60.2 µg/mL) | – | – | – | – | – | – |
| Cc1nc(N2CCC(C(C)(C)C)CC2)nc(N)c1C(=O)N[C@@H](CCN)C(=O)N(C)[C@@H]1C(=O)N[C@@H](C)C(=O)N[C@H](C(=O)O)Cc2ccc(OC[C@H](O)CN)c(c2)-c2cc1cc(OC[C@H](O)CN)c2O [Example 25, (8S,11S,14S)-18-hydroxy-11-methyl-14-[methyl-[(2S)-4-amino-2-[[4-amino-2-(4-tert-butyl-1-piperidyl)-6-methyl-pyrimidine-5-carbonyl]amino]-butanoyl]amino]-10,13-dioxo-3,17-bis[(2R)-3-amino-2-hydroxy-propoxy]-9,12-diazatricyclo-[13.3.1.12,6]icosa-1(18),2(20),3,5,15(19), 16-hexaene-8-carboxylic acid] | – | – | – | – | 0.5 µM (≈ 0.475 µg/mL) | 1 µM (≈ 0.95 µg/mL) | 64 µM (≈ 60.8 µg/mL) | 16 µM (≈ 15.2 µg/mL) | 16 µM (≈ 15.2 µg/mL) | – |
| C[C@@H]1NC(=O)[C@@H](N(C)C(=O)[C@H](CNS(N)(=O)=O)NC(=O)c2ncc(-c3ccc(C(C)(C)C)cc3)nc2N)c2cc(OC[C@H](O)CN)c(O)c(c2)-c2cc(ccc2OC[C@H](O)CN)C[C@@H](C(=O)O)NC1=O [Example 11, (8S,11S,14S)-18-hydroxy-11-methyl-14-[methyl-[(2S)-2-[[3-amino-5-(4-tert-butylphenyl)pyrazine-2-carbonyl]amino]-3-(sulfamoylamino)-propanoyl]amino]-10,13-dioxo-3,17-bis[(2R)-3-amino-2-hydroxy-propoxy]-9,12-diazatricyclo-[13.3.1.12,6]icosa-1(18),2(20),3,5,15(19), 16-hexaene-8-carboxylic acid] | – | – | – | – | – | – | – | – | – | MIC [1, 5]: 4 µM (≈ 3.98 µg/mL); MIC ([2]; ATCC25922, 22 h): 4 µM (≈ 3.98 µg/mL); MIC ([3]; PA01, 22 h): 64 µM (≈ 63.6 µg/mL); MIC [4, 6]: 16 µM (≈ 15.9 µg/mL); MIC [4, 7]: 16 µM (≈ 15.9 µg/mL) |
| C[C@@H]1NC(=O)[C@@H](N(C)C(=O)[C@H](CNS(N)(=O)=O)NC(=O)c2cnn(-c3ccc(OCCC(C)(C)C)cc3)c(=O)c2)c2cc(OC[C@H](O)CN)c(O)c(c2)-c2cc(ccc2OC[C@H](O)CN)C[C@@H](C(=O)O)NC1=O [Example 4, (8S,11S,14S)-18-hydroxy-11-methyl-14-[methyl-[(2S)-2-[[1-[4-(3,3-dimethyl-butoxy)phenyl]-6-oxo-pyridazine-4-carbonyl]amino]-3-(sulfamoylamino)-propanoyl]amino]-10,13-dioxo-3,17-bis[(2R)-3-amino-2-hydroxy-propoxy]-9,12-diazatricyclo-[13.3.1.12,6]icosa-1(18),2(20),3,5,15(19), 16-hexaene-8-carboxylic acid] | – | – | – | – | 0.75 µM (≈ 0.779 µg/mL) | 1 µM (≈ 1.04 µg/mL) | 12 µM (≈ 12.5 µg/mL) | 24 µM (≈ 24.9 µg/mL) | 24 µM (≈ 24.9 µg/mL) | – |
| COc1c(OC[C@H](O)CN)cc2cc1-c1cc(ccc1OC[C@H](O)CN)C[C@@H](C(=O)NCC#N)NC(=O)[C@H](C)NC(=O)[C@H]2N(C)C(=O)[C@H](CCN)NC(=O)c1c(C)nc(-c2ccc(C(C)(C)C)cc2)nc1C (racemic) [Example 586] | 0.094 µM (≈ 0.0935 µg/mL) | 0.094 µM (≈ 0.0935 µg/mL) | 2 µM (≈ 1.99 µg/mL) | 2 µM (≈ 1.99 µg/mL) | – | – | – | – | – | – |
| CCCCCCOc1ccc(-c2nc(C)c(C(=O)N[C@@H](CCN)C(=O)N(C)[C@@H]3C(=O)N[C@@H](C)C(=O)N[C@H](C(=O)O)Cc4ccc(OCCN)c(c4)-c4cc3ccc4OCCN)c(C)n2)cc1 (racemic) [Example 641] | 1 µM (≈ 0.91 µg/mL) | 0.75 µM (≈ 0.683 µg/mL) | 64 µM (≈ 58.2 µg/mL) | 64 µM (≈ 58.2 µg/mL) | – | – | – | – | – | – |
| Cc1nc(-c2ccc(C3(C)CC3)cc2)nc(N)c1C(=O)N[C@@H](CCN)C(=O)N(C)[C@@H]1C(=O)N[C@@H](C)C(=O)N[C@H](C(=O)O)Cc2ccc(OC[C@H](O)CN)c(c2)-c2cc1cc(OC[C@H](O)CN)c2O [Example 21] | – | – | – | – | 0.25 µM (≈ 0.235 µg/mL) | 0.38 µM (≈ 0.358 µg/mL) | 48 µM (≈ 45.2 µg/mL) | 16 µM (≈ 15.1 µg/mL) | 16 µM (≈ 15.1 µg/mL) | – |
